From ChEMBL document CHEMBL3885881, “DrugMatrix”

Species: Rattus norvegicus
Test: DrugMatrix - Regimen: Daily Repeat
Type: toxicity, organism-based, Sprague-Dawley
Design: regimen Daily Repeat, gender Male, age 6-8 weeks
Settings: in vivo, po, route oral GAVAGE, vehicle 100 % WATER; for ABSOLUTE BASOPHIL / ABSOLUTE EOSINOPHIL / ABSOLUTE LYMPHOCYTE / ABSOLUTE MONOCYTE / ABSOLUTE SEGMENTED NEUTROPHIL / BASOPHIL / EOSINOPHIL / ERYTHROCYTE COUNT / HEMATOCRIT / HEMOGLOBIN / LEUKOCYTE COUNT / LYMPHOCYTE / MEAN CORPUSCULAR HEMOGLOBIN / MEAN CORPUSCULAR HEMOGLOBIN CONCENTRATION / MEAN CORPUSCULAR VOLUME / MONOCYTE / NEUTROPHIL / NUCLEATED RED BLOOD CELLS / PLATELET COUNT: tissue Blood; for ALANINE AMINOTRANSFERASE / ALBUMIN / ALKALINE PHOSPHATASE / ASPARTATE AMINOTRANSFERASE / BLOOD UREA NITROGEN / CARBON DIOXIDE / CHLORIDE / CHOLESTEROL / CREATINE PHOSPHOKINASE / CREATININE / GLUCOSE / LACTATE DEHYDROGENASE / LIPASE / PHOSPHORUS / POTASSIUM / SODIUM / TOTAL BILIRUBIN / TOTAL PROTEIN / URIC ACID: tissue Plasma
[1] = 13 mg/kg, 72 h, dose level Low, time 3 day
[2] = 13 mg/kg, 120 h, dose level Low, time 5 day
[3] = 300 mg/kg, 72 h, dose level High, time 3 day
[4] = 300 mg/kg, 120 h, dose level High, time 5 day

OC(CCCN1CCCCC1)(c1ccccc1)c1ccccc1 [DIPHENIDOL]
ABSOLUTE BASOPHIL [1]: 0 CELLS/uL | ABSOLUTE EOSINOPHIL [1]: 54.67 CELLS/uL | ABSOLUTE LYMPHOCYTE [1]: 13934 CELLS/uL | ABSOLUTE MONOCYTE [1]: 204 CELLS/uL | ABSOLUTE SEGMENTED NEUTROPHIL [1]: 740.67 CELLS/uL | BASOPHIL [1]: 0% | EOSINOPHIL [1]: 0.33% | ERYTHROCYTE COUNT [1]: 5.67 x10E6/uL | HEMATOCRIT [1]: 36.33% | HEMOGLOBIN [1]: 14.43 G/DL | LEUKOCYTE COUNT [1]: 14.93 x10E3/uL | LYMPHOCYTE [1]: 93.33% | MEAN CORPUSCULAR HEMOGLOBIN [1]: 25.47 pg | MEAN CORPUSCULAR HEMOGLOBIN CONCENTRATION [1]: 39.7 G/DL | MEAN CORPUSCULAR VOLUME [1]: 64.07 fL | MONOCYTE [1]: 1.33% | NEUTROPHIL [1]: 5% | NUCLEATED RED BLOOD CELLS [1]: 0 /100WBC | PLATELET COUNT [1]: 1276.67 x10E3/uL | ALANINE AMINOTRANSFERASE [1]: 58.33 u/L | ALBUMIN [1]: 4.23 G/DL | ALKALINE PHOSPHATASE [1]: 408.67 u/L | ASPARTATE AMINOTRANSFERASE [1]: 99.33 u/L | BLOOD UREA NITROGEN [1]: 17.33 mg/dL | CARBON DIOXIDE [1]: 25 mmol/L | CHLORIDE [1]: 102.33 MEQ/L | CHOLESTEROL [1]: 72 mg/dL | CREATINE PHOSPHOKINASE [1]: 574 u/L | CREATININE [1]: 0.29 mg/dL | GLUCOSE [1]: 169.33 mg/dL | LACTATE DEHYDROGENASE [1]: 402.67 u/L | LIPASE [1]: 9.67 u/L | PHOSPHORUS [1]: 13.97 mg/dL | POTASSIUM [1]: 7.15 MEQ/L | SODIUM [1]: 146.43 MEQ/L | TOTAL BILIRUBIN [1]: 0.2 mg/dL | TOTAL PROTEIN [1]: 5.77 G/DL | URIC ACID [1]: 3.3 mg/dL | ABSOLUTE BASOPHIL [2]: 0 CELLS/uL | ABSOLUTE EOSINOPHIL [2]: 69 CELLS/uL | ABSOLUTE LYMPHOCYTE [2]: 13769 CELLS/uL | ABSOLUTE MONOCYTE [2]: 0 CELLS/uL | ABSOLUTE SEGMENTED NEUTROPHIL [2]: 1595.33 CELLS/uL | BASOPHIL [2]: 0% | EOSINOPHIL [2]: 0.33% | ERYTHROCYTE COUNT [2]: 5.45 x10E6/uL | HEMATOCRIT [2]: 34.73% | HEMOGLOBIN [2]: 13.73 G/DL | LEUKOCYTE COUNT [2]: 15.43 x10E3/uL | LYMPHOCYTE [2]: 89.67% | MEAN CORPUSCULAR HEMOGLOBIN [2]: 25.2 pg | MEAN CORPUSCULAR HEMOGLOBIN CONCENTRATION [2]: 39.53 G/DL | MEAN CORPUSCULAR VOLUME [2]: 63.8 fL | MONOCYTE [2]: 0% | NEUTROPHIL [2]: 10% | NUCLEATED RED BLOOD CELLS [2]: 0 /100WBC | PLATELET COUNT [2]: 1177.33 x10E3/uL | ALANINE AMINOTRANSFERASE [2]: 49 u/L | ALBUMIN [2]: 4.23 G/DL | ALKALINE PHOSPHATASE [2]: 358.67 u/L | ASPARTATE AMINOTRANSFERASE [2]: 78 u/L | BLOOD UREA NITROGEN [2]: 18.67 mg/dL | CARBON DIOXIDE [2]: 28 mmol/L | CHLORIDE [2]: 101.67 MEQ/L | CHOLESTEROL [2]: 68.67 mg/dL | CREATINE PHOSPHOKINASE [2]: 194.33 u/L | CREATININE [2]: 0.17 mg/dL | GLUCOSE [2]: 148.33 mg/dL | LACTATE DEHYDROGENASE [2]: 83.67 u/L | LIPASE [2]: 9 u/L | PHOSPHORUS [2]: 12.13 mg/dL | POTASSIUM [2]: 6.32 MEQ/L | SODIUM [2]: 146.57 MEQ/L | TOTAL BILIRUBIN [2]: 0.17 mg/dL | TOTAL PROTEIN [2]: 5.97 G/DL | URIC ACID [2]: 1.13 mg/dL | ABSOLUTE BASOPHIL [3]: 0 CELLS/uL | ABSOLUTE EOSINOPHIL [3]: 58 CELLS/uL | ABSOLUTE LYMPHOCYTE [3]: 16577.33 CELLS/uL | ABSOLUTE MONOCYTE [3]: 58 CELLS/uL | ABSOLUTE SEGMENTED NEUTROPHIL [3]: 1540 CELLS/uL | BASOPHIL [3]: 0% | EOSINOPHIL [3]: 0.33% | ERYTHROCYTE COUNT [3]: 5.58 x10E6/uL | HEMATOCRIT [3]: 35.57% | HEMOGLOBIN [3]: 14.3 G/DL | LEUKOCYTE COUNT [3]: 18.23 x10E3/uL | LYMPHOCYTE [3]: 91% | MEAN CORPUSCULAR HEMOGLOBIN [3]: 25.63 pg | MEAN CORPUSCULAR HEMOGLOBIN CONCENTRATION [3]: 40.17 G/DL | MEAN CORPUSCULAR VOLUME [3]: 63.8 fL | MONOCYTE [3]: 0.33% | NEUTROPHIL [3]: 8.33% | NUCLEATED RED BLOOD CELLS [3]: 0 /100WBC | PLATELET COUNT [3]: 1352.67 x10E3/uL | ALANINE AMINOTRANSFERASE [3]: 52 u/L | ALBUMIN [3]: 4.3 G/DL | ALKALINE PHOSPHATASE [3]: 318.33 u/L | ASPARTATE AMINOTRANSFERASE [3]: 74 u/L | BLOOD UREA NITROGEN [3]: 15.67 mg/dL | CARBON DIOXIDE [3]: 24.67 mmol/L | CHLORIDE [3]: 103.33 MEQ/L | CHOLESTEROL [3]: 80.33 mg/dL | CREATINE PHOSPHOKINASE [3]: 184 u/L | CREATININE [3]: 0.24 mg/dL | GLUCOSE [3]: 156.67 mg/dL | LACTATE DEHYDROGENASE [3]: 139.67 u/L | LIPASE [3]: 9 u/L | PHOSPHORUS [3]: 13.97 mg/dL | POTASSIUM [3]: 7.22 MEQ/L | SODIUM [3]: 146.87 MEQ/L | TOTAL BILIRUBIN [3]: 0.13 mg/dL | TOTAL PROTEIN [3]: 6.27 G/DL | URIC ACID [3]: 1.77 mg/dL | ABSOLUTE BASOPHIL [4]: 0 CELLS/uL | ABSOLUTE EOSINOPHIL [4]: 44 CELLS/uL | ABSOLUTE LYMPHOCYTE [4]: 14983.33 CELLS/uL | ABSOLUTE MONOCYTE [4]: 56.33 CELLS/uL | ABSOLUTE SEGMENTED NEUTROPHIL [4]: 783 CELLS/uL | BASOPHIL [4]: 0% | EOSINOPHIL [4]: 0.33% | ERYTHROCYTE COUNT [4]: 5.89 x10E6/uL | HEMATOCRIT [4]: 35.8% | HEMOGLOBIN [4]: 14.47 G/DL | LEUKOCYTE COUNT [4]: 15.87 x10E3/uL | LYMPHOCYTE [4]: 94.33% | MEAN CORPUSCULAR HEMOGLOBIN [4]: 24.63 pg | MEAN CORPUSCULAR HEMOGLOBIN CONCENTRATION [4]: 40.43 G/DL | MEAN CORPUSCULAR VOLUME [4]: 60.97 fL | MONOCYTE [4]: 0.33% | NEUTROPHIL [4]: 5% | NUCLEATED RED BLOOD CELLS [4]: 0.33 /100WBC | PLATELET COUNT [4]: 1311 x10E3/uL | ALANINE AMINOTRANSFERASE [4]: 67.67 u/L | ALBUMIN [4]: 4.47 G/DL | ALKALINE PHOSPHATASE [4]: 383 u/L | ASPARTATE AMINOTRANSFERASE [4]: 106.33 u/L | BLOOD UREA NITROGEN [4]: 14.33 mg/dL | CARBON DIOXIDE [4]: 23 mmol/L | CHLORIDE [4]: 101 MEQ/L | CHOLESTEROL [4]: 53.67 mg/dL | CREATINE PHOSPHOKINASE [4]: 291 u/L | CREATININE [4]: 0.27 mg/dL | GLUCOSE [4]: 161 mg/dL | LACTATE DEHYDROGENASE [4]: 445 u/L | LIPASE [4]: 11 u/L | PHOSPHORUS [4]: 14.9 mg/dL | POTASSIUM [4]: 6.65 MEQ/L | SODIUM [4]: 146.5 MEQ/L | TOTAL BILIRUBIN [4]: 0.1 mg/dL | TOTAL PROTEIN [4]: 6.2 G/DL | URIC ACID [4]: 2.83 mg/dL
